Measured values: ChEMBL document CHEMBL3045558, “Synthesis and primary evaluation of quinoxalinone derivatives as potent modulators of multidrug resistance” (Med Chem Res, 2009)

Key:
[1] = test system: K562; assay: Ratio of compound IC50 to adriamycin IC50 for Homo sapiens (human) K562 cells after 24 to 72 hr by MTT assay; assay type: functional
[2] = target: ATP-dependent translocase ABCB1 (Homo sapiens, UniProt P08183); assay: Inhibition of p-glycoprotein in Homo sapiens (human) K562/A02 cells assessed as reduction of adriamycin IC50 for cytotoxic effect at IC10 treated 12 hr before adriamycin challenge measured after 24 to 72 hr by MTT assay; assay type: cell-based
[3] = Cytotoxicity against Homo sapiens (human) K562/A02 cells after 24 to 72 hr by MTT assay; assay type: cell-based

Chain of ATP-dependent translocase ABCB1 (P08183 whole entry): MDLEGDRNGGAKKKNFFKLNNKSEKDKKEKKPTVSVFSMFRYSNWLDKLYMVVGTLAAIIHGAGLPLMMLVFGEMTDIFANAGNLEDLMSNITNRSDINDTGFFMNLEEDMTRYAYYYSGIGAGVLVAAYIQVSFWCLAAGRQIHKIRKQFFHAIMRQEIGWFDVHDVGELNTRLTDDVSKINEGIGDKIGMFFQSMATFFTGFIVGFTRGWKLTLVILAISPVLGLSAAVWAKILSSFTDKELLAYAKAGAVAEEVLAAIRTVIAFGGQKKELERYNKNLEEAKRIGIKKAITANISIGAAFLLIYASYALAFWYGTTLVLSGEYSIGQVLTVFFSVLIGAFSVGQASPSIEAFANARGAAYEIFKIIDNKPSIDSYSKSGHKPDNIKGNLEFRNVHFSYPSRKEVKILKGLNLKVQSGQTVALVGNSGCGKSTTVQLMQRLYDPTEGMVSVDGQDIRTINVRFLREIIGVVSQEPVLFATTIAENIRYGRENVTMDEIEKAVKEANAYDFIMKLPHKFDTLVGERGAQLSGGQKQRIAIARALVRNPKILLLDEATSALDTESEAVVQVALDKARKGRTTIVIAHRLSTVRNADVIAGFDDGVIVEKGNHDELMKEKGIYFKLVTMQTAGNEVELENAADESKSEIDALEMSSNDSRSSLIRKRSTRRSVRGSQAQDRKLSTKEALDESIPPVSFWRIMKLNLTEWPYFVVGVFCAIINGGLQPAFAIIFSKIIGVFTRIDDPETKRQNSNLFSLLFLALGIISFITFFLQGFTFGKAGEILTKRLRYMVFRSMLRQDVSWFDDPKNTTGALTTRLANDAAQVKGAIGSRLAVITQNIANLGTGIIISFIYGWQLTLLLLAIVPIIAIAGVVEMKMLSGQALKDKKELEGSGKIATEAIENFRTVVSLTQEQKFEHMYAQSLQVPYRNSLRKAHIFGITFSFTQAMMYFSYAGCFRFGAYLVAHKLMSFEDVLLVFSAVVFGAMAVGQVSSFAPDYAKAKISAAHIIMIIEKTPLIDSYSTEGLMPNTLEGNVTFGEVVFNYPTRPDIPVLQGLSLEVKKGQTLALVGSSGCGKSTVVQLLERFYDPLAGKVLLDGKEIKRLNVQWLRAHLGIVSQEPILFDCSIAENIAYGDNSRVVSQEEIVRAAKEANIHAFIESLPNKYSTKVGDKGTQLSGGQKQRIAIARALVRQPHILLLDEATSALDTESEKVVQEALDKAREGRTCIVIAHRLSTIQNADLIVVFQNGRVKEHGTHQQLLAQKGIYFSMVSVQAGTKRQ

Row | SMILES | Ratio IC50 [1] | fold change (FC) [2] | IC10 [3]
1 | COC(=O)[C@@H]1C[C@@H](O)CN1C(=O)Cn1c(=O)c(C)nc2ccccc21 | 1.15 | 4.82 | 2890 nM
2 | Cc1nc2ccccc2n(CC(=O)Nc2ccc(Br)cc2)c1=O | 0.94 | 1.24 | 2700 nM
3 | CCOC(=O)CNC(=O)Cn1c(=O)c(C)nc2ccccc21 | 1.07 | 2.37 | 16500 nM
4 | Cc1nc2ccccc2n(CC(=O)Nc2ccccc2)c1=O | 1.07 | 2.45 | 34100 nM
5 | Cc1nc2cc(F)c(F)cc2n(CC(=O)Nc2ccccc2)c1=O | 1 | 2.41 | 1520 nM
6 | Cc1ccccc1NC(=O)Cn1c(=O)c(C)nc2ccccc21 | 1.15 | 4.01 | 1850 nM
7 | COC(=O)[C@H](Cc1ccccc1)NC(=O)Cn1c(=O)c(C)nc2cc(F)c(F)cc21 | 1.15 | 1.05 | 2410 nM
8 | COC(=O)[C@H](Cc1ccccc1)NC(=O)Cn1c(=O)c(C)nc2ccccc21 | 1.25 | 2.01 | 13190 nM
9 | COC(=O)[C@H](Cc1ccccc1)NC(=O)Cn1c(=O)c(C)nc2cc(OC)c(OC)cc21 | 1 | 1.82 | 11380 nM
10 | Cc1nc2ccccc2n(CC(=O)Nc2ccc(F)c(Cl)c2)c1=O | 1 | 1.83 | 2910 nM
11 | CCOC(=O)CC[C@H](NC(=O)Cn1c(=O)c(C)nc2ccccc21)C(=O)OCC | 1.15 | 4.13 | 2480 nM
12 | COc1ccc(NC(=O)Cn2c(=O)c(C)nc3ccccc32)cc1OC | 1.15 | 3.75 | 1420 nM
13 | Cc1nc2ccccc2n(CC(=O)Nc2ccc(F)c(F)c2)c1=O | 1.07 | 5.3 | 2570 nM
14 | Cc1ccc(NC(=O)Cn2c(=O)c(C)nc3ccccc32)cc1 | 1 | 3.55 | 1630 nM
15 | COc1cc2nc(C)c(=O)n(CC(=O)Nc3ccccc3)c2cc1OC | 1.15 | 4.59 | 2840 nM
16 | Cc1nc2ccccc2n(CC(=O)Nc2ccc(Cl)c(Cl)c2)c1=O | 1.07 | 1.62 | 140 nM
17 | CCOC(=O)Cn1c(=O)c(C)nc2ccccc21 | 1 | 1.5 | 4060 nM
